Molecules are shown by their SMILES. Some results are limits rather than exact numbers.

In this assay the target is T1, N-terminally GST-tagged DLK (catalytic domain amino acid 1-520) (Homo sapiens, UniProt Q12852).
T1 construct: N-terminally GST-tagged DLK (catalytic domain amino acid 1-520); purchased Carna Bioscience
T1 sequence (Q12852 1-520): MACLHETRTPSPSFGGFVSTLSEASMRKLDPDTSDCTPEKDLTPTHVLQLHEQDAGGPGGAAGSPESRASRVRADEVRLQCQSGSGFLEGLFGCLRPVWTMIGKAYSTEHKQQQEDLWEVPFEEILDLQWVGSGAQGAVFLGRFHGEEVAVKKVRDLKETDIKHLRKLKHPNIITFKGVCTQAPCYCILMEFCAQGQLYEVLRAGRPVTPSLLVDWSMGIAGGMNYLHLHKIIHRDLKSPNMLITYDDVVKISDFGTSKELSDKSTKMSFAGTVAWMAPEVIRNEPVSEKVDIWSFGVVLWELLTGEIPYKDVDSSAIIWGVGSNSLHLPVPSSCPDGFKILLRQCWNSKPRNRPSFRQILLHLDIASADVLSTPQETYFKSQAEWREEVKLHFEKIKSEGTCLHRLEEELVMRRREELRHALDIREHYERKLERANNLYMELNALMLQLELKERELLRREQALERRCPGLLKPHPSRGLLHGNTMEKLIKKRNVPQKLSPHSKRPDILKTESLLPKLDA
Kind of assay: DLK TR-FRET inhibition assay. The assay is classed as biochemical. As to conditions: 5 nM GST-DLK, 40 nM HIS-MKK4 K131M substrate, 30 μM ATP, 60 minutes at ambient temperature. On the procedure:
DLK TR-FRET inhibition assay: DLK kinase reactions (20 μL) containing 5 nM N-terminally GST-tagged DLK (catalytic domain amino acid 1-520) (Carna Bioscience), 40 nM N-terminally HIS-tagged MKK4 K131M substrate, and 30 μM ATP in kinase reaction buffer (50 mM HEPES, pH 7.5, 0.01% Triton X-100, 0.01% Bovine γ-Globulins, 2 mM DTT, 10 mM MgCl2 and 1 mM EGTA), and testing compound 1:3 serial diluted starting at 20 uM were incubated at ambient temperature for 60 minutes in 384 well OptiPlate (Perkin Elmer). To quench kinase reactions and detect phosphorylated MKK4, 15 μL of TR-FRET antibody mixture containing 2 nM anti-phosphorylated MKK4 labeled with Europium cryptate (Cisbio) and 23 nM anti-HIS labeled with D2 (Cisbio) in detection buffer (25 mM Tris pH 7.5, 100 mM NaCl, 100 mM EDTA, 0.01% Tween-20, and 200 mM KF) was added to the reaction mixture. The detection mixture was incubated for 3 hours at ambient temperature and the TR-FRET was detected with an EnVision multilabel plate reader (Perkin-Elmer) using the LANCE/DELFIA Dual Enh label from Perkin-Elmer (excitation filter: UV2 (TRF) 320 and emission filters: APC 665 and Europium 615).
Consider `CC(C)n1nc(-c2cnc(N)c(C(F)(F)F)c2)cc1[C@H]1[C@@H]2C[C@@H](N3CCN(C4COC4)CC3)C[C@@H]21` [compound 117, 5-(1-isopropyl-5-((1R,3s,5S,6r)-3-(4-(oxetan-3-yl)piperazin-1-yl)bicyclo[3.1.0]hexan-6-yl)-1H-pyrazol-3-yl)-3-(trifluoromethyl) pyridin-2-amine], for which the Ki was 5.26 nM. In other words, the single-digit nanomolar range. `Nc1ncc(-c2cc([C@H]3[C@@H]4C[C@H](N5CCOCC5)C[C@@H]43)n(CC3CC3)n2)cc1OC(F)(F)F` [compound 295, 5-(1-(cyclopropylmethyl)-5-((1R,3r,5S,6r)-3-morpholinobicyclo [3.1.0]hexan-6-yl)-1H-pyrazol-3-yl)-3-(trifluoromethoxy) pyridin-2-amine] showed a Ki of 2.4 nM. The molecule `CC(C)n1nc(-c2cnc(N)c(OC(F)F)c2)cc1[C@H]1[C@@H]2C[C@H](N3CCN(C)C[C@@H]3C)C[C@@H]21` [compound 238, 3-(difluoromethoxy)-5-(5-((1R,3r,5S,6S)-3-((S)-2,4-dimethyl-piperazin-1-yl)bicyclo[3.1.0]hexan-6-yl)-1-isopropyl-1H-pyrazol-3-yl)pyridin-2-amine] returned a Ki of 1.6 nM. The Ki values of the last two molecules are within 1.5-fold of each other. For `CC(C)n1nc(-c2cnc(N)c(OC(F)F)c2)cc1[C@H]1[C@@H]2C[C@@H](N3C4COCC3C4)C[C@@H]21` [compound 157, 5-(5-((1R,3s,5S,6r)-3-(3-oxa-6-azabicyclo[3.1.1]heptan-6-yl)bicyclo[3.1.0]hexan-6-yl)-1-isopropyl-1H-pyrazol-3-yl)-3-(difluoro-methoxy)pyridin-2-amine] the value was 3.1 nM; for `CC(C)n1nc(-c2cnc(N)c(OC(F)F)c2)cc1[C@H]1[C@@H]2CC(F)(CN(C)C)C[C@@H]21` (mixture of isomers) [compound 178, 3-(difluoromethoxy)-5-(5-((1R, 5S,6r)-3-((dimethylamino)methyl)-3-fluorobicyclo[3.1.0]hexan-6-yl)-1-isopropyl-1H-pyrazol-3-yl)pyridin-2-amine], 2.1 nM. `CO[C@@H]1CCN([C@H]2C[C@@H]3[C@H](C2)[C@H]3c2cc(-c3cnc(N)c(OC(F)(F)F)c3)nn2C(C)C)C1` [compound 22, 5-(1-isopropyl-5-((1R,3r,5S,6R)-3-((R)-3-methoxypyrrolidin-1-yl)bicyclo[3.1.0]hexan-6-yl)-1H-pyrazol-3-yl)-3-(trifluoro-methoxy)pyridin-2-amine] gave a Ki of 1.57 nM. Molecule `CC(C)n1nc(-c2cnc(N)c(SC(F)(F)F)c2)cc1[C@H]1[C@@H]2C[C@@H](N3CCOCC3)C[C@@H]21` [compound 95, 5-(1-isopropyl-5-((1R,3s,5S,6r)-3-morpholinobicyclo[3.1.0]hexan-6-yl)-1H-pyrazol-3-yl)-3-((trifluoro-methyl)thio)pyridin-2-amine] displayed an inhibitory constant (Ki) of 2.13 nM. The molecule `CC(C)n1nc(-c2cnc(N)c(C(F)(F)F)c2)cc1[C@H]1[C@@H]2C[C@H](N3CCCC3=O)C[C@@H]21` [compound 35, 1-((1R,3r,5S,6r)-6-(3-(6-amino-5-(trifluoromethyl)pyridin-3-yl)-1-isopropyl-1H-pyrazol-5-yl)bicyclo[3.1.0]hexan-3-yl)pyrrolidin-2-one] registered a Ki of 3 nM. For `CC(C)n1nc(-c2cnc(N)c(C(F)(F)F)c2)cc1[C@H]1[C@@H]2C[C@@H](N3CCCOCC3)C[C@@H]21` [compound 102, 5-(5-((1R,3s,5S,6r)-3-(1,4-oxazepan-4-yl)bicyclo[3.1.0]hexan-6-yl)-1-isopropyl-1H-pyrazol-3-yl)-3-(trifluoromethyl)pyridin-2-amine] the value was 0.79 nM; for `CC(C)n1nc(-c2cnc(N)c(OC(F)(F)F)c2)cc1[C@H]1[C@@H]2C[C@@H](NCC(F)F)C[C@@H]21` [compound 288, 5-(5-((1R,3s,5S,6r)-3-((2,2-udifloroethyl)amino)bicyclo[3.1.0]hexan-6-yl)-1-isopropyl-1H-pyrazol-3-yl)-3-(tritluoromethoxy) pyridin-2-amine], 6.3 nM; for `CC(C)n1nc(-c2cnc(N)c(OC(F)F)c2)cc1[C@H]1[C@@H]2CC3(CCO3)C[C@@H]21` (stereo partly drawn) [compound 92, 3-(difluoromethoxy)-5-(1-isopropyl-5-((1 R,5S,6r)-spiro[bicyclo [3.1.0]hexane-3,2′-oxetan]-6-yl)-1H-pyrazol-3-yl)pyridin-2-amine], 9.4 nM. The figure for `CC(C)n1nc(-c2cnc(N)c(OC(F)F)c2)cc1[C@H]1[C@@H]2C[C@@H](N3C[C@@H]4C[C@H]3CN4C)C[C@@H]21` [compound 206, 3-(difluoromethoxy)-5-(1-isopropyl-5-((1R,3s,5S,6S)-3-((1S,4S)-5-methyl-2,5-diazabicyclo [2.2.1]heptan-2-yl)bicyclo[3.1.0]hexan-6-yl)-1H-pyrazol-3-yl) pyridin-2-amine] is 2.1 nM; for `CC(C)n1nc(-c2cnc(N)c(C(F)(F)F)c2)cc1[C@@H]1[C@@H]2C[C@H](N3CCOCC3)C[C@@H]21` [compound 126, 5-(1-isopropyl-5-((1R,5S,6s)-3-morpholinobicyclo[3.1.0]hexan-6-yl)-1H-pyrazol-3-yl)-3-(trifluoro-methyl)pyridin-2-amine] it is greater than 1600 nM; for `CC(C)n1nc(-c2cnc(N)c(OC(F)F)c2)cc1[C@H]1[C@@H]2C[C@H](N3CC4(CN(C)CCO4)C3)C[C@@H]21` [compound 228, 3-(difluoromethoxy)-5-(1-isopropyl-5-((1R,3r,5S,6r)-3-(8-methyl-5-oxa-2,8-diazaspiro[3.5]nonan-2-yl)bicyclo[3.1.0]hexan-6-yl)-1H-pyrazol-3-yl)pyridin-2-amine] it is 2.8 nM. In turn, `CC(C)n1nc(-c2cnc(N)c(OC(F)(F)F)c2)cc1[C@H]1[C@@H]2C[C@H](N3CCN(C)C[C@@H]3C)C[C@@H]21` [compound 240, 5-(5-((1R,3r,5S,6S)-3-((S)-2,4-dimethylpiperazin-1-yl)bicyclo [3.1.0]hexan-6-yl)-1-isopropyl-1H-pyrazol-3-yl)-3-(trifluoromethoxy) pyridin-2-amine] had a Ki of 2.1 nM. With `CC(C)n1nc(-c2cnc(N)c(C(F)(F)F)c2)cc1[C@H]1[C@@H]2C[C@@H](N(C)CCS(C)(=O)=O)C[C@@H]21` [compound 7, 5-(1-isopropyl-5-((1R,3s,5S,6r)-3-(methyl(2-(methylsulfonyl)ethyl)amino)bicyclo[3.1.0]hexan-6-yl)-1H-pyrazol-3-yl)-3-(trifluoromethyl)pyridin-2-amine], the Ki came out at 4.63 nM. This Ki is about 2.2-fold higher than that of the molecule before. In turn, `CC(C)n1nc(-c2cnc(N)c(OC(F)(F)F)c2)cc1[C@H]1[C@@H]2C[C@@H](N3CCNCC3)C[C@@H]21` [compound 245, 5-(1-isopropyl-5-((1R,3s,5S,6r)-3-(piperazin-1-yl)bicyclo[3.1.0]hexan-6-yl)-1H-pyrazol-3-yl)-3-(trifluoromethoxy)pyridin-2-amine] came in with a Ki of 2.6 nM. As for `CC(C)n1nc(-c2cnc(N)c(C(=O)N3CCCC3)c2)cc1[C@H]1[C@@H]2C[C@H](N3CC(F)C3)C[C@@H]21` [compound 107, (2-amino-5-(5-((1R,3r,5S,6r)-3-(3-fluoroazetidin-1-yl)bicyclo [3.1.0]hexan-6-yl)-1-isopropyl-1H-pyrazol-3-yl)pyridin-3-yl) (pyrrolidin-1-yl)methanone], the Ki was greater than 321 nM. `CC(C)n1nc(-c2cnc(N)c(C(F)(F)F)c2)cc1[C@@H]1[C@@H]2C[C@@H](N3CC(C#N)C3)C[C@@H]21` [compound 124, 1-((1R,3s,5S,6s)-6-(3-(6-amino-5-(trifluoromethyl)pyridin-3-yl)-1-isopropyl-1H-pyrazol-5-yl)bicyclo[3.1.0]hexan-3-yl) azetidine-3-carbonitrile] gave a Ki greater than 1600 nM. `CC(C)n1nc(-c2cnc(N)c(OC(F)(F)F)c2)cc1[C@H]1[C@@H]2C[C@H](NCC(F)F)C[C@@H]21` [compound 282, 5-(5-((1R,3r,5S,6r)-3-((2,2-difluoroethyl)amino)bicyclo[3.1.0]hexan-6-yl)-1-isopropyl-1H-pyrazol-3-yl)-3-(trifluoromethoxy) pyridin-2-amine]: affinity was put at a Ki of 7.7 nM. This counts as single-digit nanomolar. For `COC1CCN([C@H]2C[C@@H]3[C@H](C2)[C@H]3c2cc(-c3cnc(N)c(OC(F)F)c3)nn2C(C)C)CC1` [compound 247, 3-(difluoromethoxy)-5-(1-isopropyl-5-((1R,3r,5S,6r)-3-(4-methoxypiperidin-1-yl)bicyclo[3.1.0]hexan-6-yl)-1H-pyrazol-3-yl) pyridin-2-amine] the value was 2.9 nM.
